Laboratory results taken from PubChem BioAssay AID1963830 (Molecular Pharmacology Branch, DTP, NCI, 2024).

System: 922993-354-T-J3-PDC complex spheroid viability
Test: Anticancer human tumor 922993-354-T-J3-PDC patient-derived endometrial carcinoma cell line growth inhibition [POLQ]
Conditions: for IC50: curve of first compound; for viability, T/C: stronger effect = lower value
Description: Multicellular complex tumor spheroid response to Polymerase (POL) inhibitors (novobiocin, ART-558, RP6685) in combination with a variety of drugs and investigational agents in selected tumor cell lines
The POL inhibitors (novobiocin, ART-558, and RP6685) were evaluated both individually and in combination with standard of care and investigational anticancer small molecules within a complex spheroid model of solid tumors. . Complex spheroids include a stromal component modeled by human endothelial cells (HUVEC) and fibroblasts modeled by human mesenchymal stem cells (MSCs). The concentration ranges selected for each drug and investigational agent were based upon clinically achievable concentrations if the clinical Cmax of the agent was known.
Compounds. The drugs and investigational agents: novobiocin (NSC847541), ART-558 (NSC835418), RP-6685 (NSC848927), peposertib (NSC802822), ceralasertib (NSC780249), elimusertib (NSC800525), camonsertib (NSC841442), AZD-1390 (NSC803789), olaparib (NSC753686), talazoparib (NSC767125), rucaparib (NSC756644), sotorasib (NSC818433), MRTX-1133 (NSC836407), SN-38 (NSC673596), topotecan (NSC609699), epotoside (NSC141540), doxorubicin (NSC123127), gemcitabine (NSC613327), 5-fluorouracil (NSC19893), paclitaxel (NSC125973), vemurafenib (NSC761431), MSA-2 (NSC828583), SN-011 (NSC837082), adavosertib (NSC754352), prexasertib (NSC758257), carboplatin (NSC241240) and oxaliplatin (NSC266046), were obtained from the National Cancer Institute (NCI) Developmental Therapeutics Program Chemical Repository (21). The FDA-approved anticancer drug set is available from the Developmental Therapeutics Program at https://dtp.cancer.gov/organization/dscb/obtaining/. […] The stock solutions were prepared in dimethyl sulfoxide (DMSO, Sigma-Aldrich, St. Louis, MO, cat. D2650), except for the platinum compounds which were prepared in saline (Quality Biological, Gaithersburg, MD, cat. 114-055-101), at 800-fold the tested concentration and stored at -70 degrees C prior to their use. All drugs and investigational agents were tested over a range starting from a high concentration at or near the clinical Cmax and decreasing in half-log increments. If the clinical Cmax for an agent had not been determined, the highest concentration tested was 10 microM, except for SN-38, which was tested at a high concentration of 1 microM.
Cell Culture. All cells were maintained in an incubator at 37 degrees C and 5% CO2 with 95% humidity. The PDC lines were cultured according to standard operating procedures established by the NCI PDMR (https://pdmr.cancer.gov). Table 3 of the manuscript, lists the cell lines along with the number of the three cell types plated to form the mct-spheroids and media for tumor cell growth. After thawing, all PDC lines, except 997537-175-T-J1-PDC and 415267-285-R-J2-PDC, were cultured in Matrigel-coated flasks prepared with a working solution of 1X Ham's F-12 nutrient mix, without supplementation (Thermo Fisher Scientific, cat. 11765054), 100 U/mL penicillin-streptomycin (Thermo Fisher Scientific, cat. 15140122), and 2.5% Matrigel (Corning Inc., Corning, NY, cat. 354248) for the first three passages. The two PDC lines 997537-175-T-J1-PDC and 415267-285-R-J2-PDC were cultured on uncoated flasks. The 857933-349-R-J2-PDC line was cultured in 6C/Colon 1B media containing advanced DMEM/F-12 (Thermo Fisher Scientific, cat. 12634028), 10 mM HEPES (Thermo Fisher Scientific, cat. 15630080), 1X GlutaMAX supplement (Thermo Fisher Scientific, cat. 35050061), 0.1 mg/mL primocin (InvivoGen, San Diego, CA, cat. ant-pm-2), 10% defined fetal bovine serum, heat inactivated (HyClone Laboratories Inc., Logan, UT, cat. SH30070.03HI), 50% L-WRN conditioned media (ATCC, cat. CRL-3276), 1.25 mM N-Acetyl-L-cysteine (Sigma-Aldrich, cat. A9165), 10 mM nicotinamide (Sigma-Aldrich, cat. N0636), 1X B-27 supplement (Thermo Fisher Scientific, cat. 17504044), 1X N-2 supplement (Thermo Fisher Scientific, cat. […]
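Further: spheroids exposed to the agents for one week.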
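Wherever viability, T/C is given: 100% = DMSO vehicle control wells.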

Structure (SMILES): CNCc1ccc(-c2[nH]c3cc(F)cc4c3c2CCNC4=O)cc1 + Cc1cccc(N(C)C(=O)C2C(O)CCN2c2nc(C)cc(C(F)(F)F)c2C#N)c1
- IC50 (second compound 0.0316 µM): > 10 µM
- IC50 (second compound 0.1 µM): > 10 µM
- IC50 (second compound 0.316 µM): > 10 µM
- IC50 (second compound 1 µM): > 10 µM
- IC50 (second compound 3.16 µM): > 10 µM
- IC50 (second compound 10 µM): 8.53 µM
- viability, T/C (second compound 0.0316 µM, first compound 0.0316 µM): 103%
- viability, T/C (second compound 0.0316 µM, first compound 0.1 µM): 101%
- viability, T/C (second compound 0.0316 µM, first compound 0.316 µM): 104%
- viability, T/C (second compound 0.0316 µM, first compound 1 µM): 99.5%
- viability, T/C (second compound 0.0316 µM, first compound 3.16 µM): 89.7%
- viability, T/C (second compound 0.0316 µM, first compound 10 µM): 82.9%
- viability, T/C (second compound 0.1 µM, first compound 0.0316 µM): 105%
- viability, T/C (second compound 0.1 µM, first compound 0.1 µM): 101%
- viability, T/C (second compound 0.1 µM, first compound 0.316 µM): 100%
- viability, T/C (second compound 0.1 µM, first compound 1 µM): 107%
- viability, T/C (second compound 0.1 µM, first compound 3.16 µM): 89.5%
- viability, T/C (second compound 0.1 µM, first compound 10 µM): 90%
- viability, T/C (second compound 0.316 µM, first compound 0.0316 µM): 110%
- viability, T/C (second compound 0.316 µM, first compound 0.1 µM): 105%
- viability, T/C (second compound 0.316 µM, first compound 0.316 µM): 96.3%
- viability, T/C (second compound 0.316 µM, first compound 1 µM): 97.4%
- viability, T/C (second compound 0.316 µM, first compound 3.16 µM): 92.3%
- viability, T/C (second compound 0.316 µM, first compound 10 µM): 86.7%
- viability, T/C (second compound 1 µM, first compound 0.0316 µM): 110%
- viability, T/C (second compound 1 µM, first compound 0.1 µM): 100%
- viability, T/C (second compound 1 µM, first compound 0.316 µM): 108%
- viability, T/C (second compound 1 µM, first compound 1 µM): 90.8%
- viability, T/C (second compound 1 µM, first compound 3.16 µM): 94.6%
- viability, T/C (second compound 1 µM, first compound 10 µM): 90.6%
- viability, T/C (second compound 3.16 µM, first compound 0.0316 µM): 105%
- viability, T/C (second compound 3.16 µM, first compound 0.1 µM): 104%
- viability, T/C (second compound 3.16 µM, first compound 0.316 µM): 97%
- viability, T/C (second compound 3.16 µM, first compound 1 µM): 90.8%
- viability, T/C (second compound 3.16 µM, first compound 3.16 µM): 97.7%
- viability, T/C (second compound 3.16 µM, first compound 10 µM): 82.8%
- viability, T/C (second compound 10 µM, first compound 0.0316 µM): 105%
- viability, T/C (second compound 10 µM, first compound 0.1 µM): 101%
- viability, T/C (second compound 10 µM, first compound 0.316 µM): 106%
- viability, T/C (second compound 10 µM, first compound 1 µM): 87.8%
- viability, T/C (second compound 10 µM, first compound 3.16 µM): 84.7%
- viability, T/C (second compound 10 µM, first compound 10 µM): 44.1%
